Measured values published in patent publication US12023308B2, “Agents for reversing toxic proteinopathies” (THE BROAD INSTITUTE, INC., priority 2019, dated 2024).

Key:
[1] = tested on: MUC1-fs; assay: MUC1-fs subcellular distribution (co-localization IF) in P cells; type: cell-based, human
Description: Cell nuclei were first identified using Hoechst staining, and cell number was calculated. Cytoplasmic regions were then detected around each nucleus based on combined channels. The cells from the edge of the field were eliminated from the analysis. For the quantification of protein abundance, the total signal intensity value for each antibody was calculated separately in the cell cytoplasm and the average signal per cell was calculated for each well. For quantitation of MUC1-fs cellular distribution and trafficking, the analysis was performed as described in FIG. 13A using the “spot” identification feature for the detection of MUC1-fs and the different organelles.
Detection of MUC1-fs in P cells at baseline and following secretory pathway perturbations was performed using immunoblot and IF analyses. […] For IF experiments (FIGS. 5B-5D and 13A-13C), P cells were plated in 384-well plates at 12,000 cells/well.

[2] = tested on: rhodopsin P23H; assay: GFP fluorescence in N cells expressing rhodopsin P23H-GFP; type: cell-based, human; conditions: 5 μM, 24 hours
Description: N cells plated in 96-well plates were transfected with 20 ng/well of P23H mutant rhodopsin-GFP plasmid DNA using Lipofectamine 3000 (Thermo Fisher Scientific®). Eight hr post-transfection, the cells were washed and processed as described below.
For the GFP-rhodopsin experiments (FIGS. 15D and 15E), cells were identified by digital phase contrast. GFP signal was calculated only in cells expressing GFP signal above a minimal background (to identify successfully transfected cells) and the mean intensity was averaged for each well.
Detection of MUC1-fs in P cells at baseline and following secretory pathway perturbations was performed using immunoblot and IF analyses. For immunoblot experiments (FIGS. 5E and 13D), P cells were grown in 6-well plates to high confluence. For IF experiments (FIGS. 5B-5D and 13A-13C), P cells were plated in 384-well plates at 12,000 cells/well. Following 24 hr, cells were treated with 5 μM BRD-4780 or DMSO alone, or in combination with 100 nM Bafilomycin A (B1793, Sigma-Aldrich), or 200 ng/mL Brefeldin A (B7651, Sigma-Aldrich) for a maximum period of 24 hr as indicated. For TMED9 or Nischarin depletion experiments, transduced/transfected P cells were plated either in 96-well plates at 60,000 cells/well for IF (FIGS. 6C, 6D and 14B), or grown in 6-well plates to high confluence for immunoblot detection (FIGS. 6B and 14C). […]

[3] = tested on: P cells; assay: P cell viability upon THP treatment (live imaging, rescue); type: cell-based, human; conditions: P cells
Description: To study apoptosis and cell death in N and P cells, 384 well Cell Carrier Ultra plates (6057308, Perkin Elmer), pre-coated with 0.25 mg/mL Synthemax II SC Substrate (3535, Corning) were used. […] CellEvent Caspase-3/7 Green Detection Reagent (C10423, Thermo Fisher Scientific®) and DRAQ7 (DR71000, Biostatus) were used at 1:5000 to monitor apoptosis and cell death respectively. Cells were imaged daily during 4 days to monitor viability and image analysis was performed as described below. For rescue experiments, P cells were plated on 96 well Cell Carrier Ultra microplates (6055302, Perkin Elmer) at 30,000 cells/well and cultured for 24 hr. BRD-4780 (5 μM) was applied as a pretreatment for 48 hr prior to thapsigargin exposure and throughout the experiment. Thapsigargin was applied at increasing doses and the plates were imaged daily thereafter.
For the measurement of P cell rescue from THP-induced cell death by BRD-4780 (FIGS. 3I and 3J), no dyes were added to avoid any influence on cell growth. Digital phase contrast images were used for cell identification and count, and autofluorescence in the far-red channel was used for detection of dead cells. Cells with no autofluorescence were identified and calculated as live cell.
P cells were seeded 12 hr prior to profiling compound treatment at a density of 12,000 cells/well in 384 well Cell Carrier Ultra plates (6057308, Perkin Elmer), pre-coated with 0.25 mg/mL Synthemax II SC Substrate (3535, Corning). After 24 hr, CellEvent Caspase-3/7 Green Detection Reagent (C10423, Thermo Fisher Scientific®) and DRAQ7 (DR71000, Biostatus) were added at 1:5000 final dilution in the presence or absence of thapsigargin (100 nM). Cells were imaged daily during 7 days to monitor viability. Image acquisition and analysis was done as described above and viability was assessed as fraction of live cells at day 5 of thapsigargin treatment, and at the day 6 for DMSO.

[4] = Dose response exposure PK study in male 129-ELITE mice; type: in vivo, mouse; conditions: single p.o. doses
Description: 4) A pharmacokinetic study was performed by Charles River Labs (CRL) (Worcester, Mass., USA) in fed male 129-ELITE mice (study EF-0024-DA-MI) to determine the dose response exposure of BRD-4780, BRD-1365 and BRD-7709 in plasma, kidney, liver and eye. Brain exposure to BRD-4780 at 30 mg/kg was also evaluated A single dose of BRD-4780 was administered at 30.0 mg/kg or 100 mg/kg orally (p.o) in a clear solution of 5% dextrose in water (D5W). For BRD-1365 and BRD-7709, a single dose of either compound was administered at 10.0 mg/kg, 30.0 mg/kg, 50.0 mg/kg or 100 mg/kg orally (p.o) in a clear solution of 5% dextrose in water (D5W). Blood, kidney, liver and eye tissue were collected from n=3 mice per dose group at six time points post p.o. dose administration (1, 2, 6, 10, 16 and 24 hours) with all three compounds. Brain tissue was collected from n=3 mice per dose group at six time points post p.o. dose administration (1, 2, 6, 10, 16 and 24 hours) with BRD-4780 at 30 mg/kg. Plasma obtained by centrifugation and tissue fragments were homogenized. Plasma and tissue drug concentration was determined by LC-MS/MS and reported as drug concentration in ng/mL for plasma and ng/mg for kidney, liver and eye tissue, plotted as the mean±standard deviation concentration for males for BRD-4780 ([…]), BRD-1365 (FIG. 11K) and BRD-7709 (FIG. 11M). Standard pharmacokinetic parameters were calculated for males for BRD-4780 ([…]), BRD-1365 (FIG. 11O) and BRD-7709 (FIG. 11P).

[5] = tested on: ER stress and the UPR; assay: RNA-Seq pathway analysis of fs/+ mouse kidney lysates; type: in vivo; conditions: fs/+ mice, 50 mg/kg/day, 7 days
Description: RNA was extracted from a sagittal section of a half-kidney. Kidney tissue was homogenized using tissue homogenizer (Tissue-Tearor™, BioSpec Products) in 1 mL of TRIzol™ Reagent (15596026, Thermo Fisher Scientific®). Following 5 min incubation, 0.2 mL chloroform (C2432-500ML, Sigma-Aldrich) was added, and samples were vigorously mixed for 30 sec, then centrifuged at 12,000×g at 4° C. for 15 min. The upper aqueous phase containing RNA was then vigorously mixed with 0.5 mL of isopropanol for 30 sec. After 10 min incubation at RT, the samples were centrifuged at 12,000×g at 4° C. for 10 min. The pellet was resuspended in 1 mL of 75% ethanol and centrifuged at 12,000×g 4° C. for 5 min. The RNA pellet was then air dried for 15 min, dissolved in 50 μL of Nuclease-Free Water (AM9937, Thermo Fisher Scientific®), treated with DNase I, Amplification Grade (18068015, Thermo Fisher Scientific®) following the manufacturer's protocol and assessed for yield and purity by NanoDrop™ 2000 (Thermo Fisher Scientific®).
Data processing and statistical analyses for all RNA-seq experiments were performed in RStudio—Version 1.0.153 as follows. First, bam files obtained from the Broad Institute sequencing platform were reverted to FASTQ files followed by alignment of paired end reads to the mm10 mouse or hg19 human reference genome using STAR. […]

CC(C)[C@@H]1[C@H]2CC[C@H](C2)[C@H]1N (racemic) [BRD-4780, 2-endo-amino-3-exo-isopropylbicyclo[2.2.1]heptane]
MUC1-fs subcellular distribution [1]: reduced in the early secretory compartment | GFP fluorescence of GFP-rhodopsin P23H [2]: significantly decreased GFP fluorescence at 24 hours | rescue from THP-induced cell death [3]: rescued P cells from THP-induced cell death | dose proportionality of AUC exposures [4]: not dose proportional | pathways changed in kidney bulk RNA-Seq [5]: downregulated pathways associated with ER stress and the UPR
